Columns and labels:
FES^WT = target: T1, FES^WT (Homo sapiens, UniProt P07332); assay: In vitro TR-FRET kinase assay; format: biochemical; settings: FES WT, mean, n=3
T1 construct: human FES cDNA encoding residues 448–822 or human FER cDNA encoding residues 448–820 was amplified by PCR; made in house; host or cells: E. coli BL21(DE3), co-expressing YopH phosphatase
Method: All measurements were performed in triplicate.

FER^WT = FER^WT (Homo sapiens, UniProt P16591); assay: In vitro TR-FRET kinase assay
Chain of FER^WT (P16591 448-820): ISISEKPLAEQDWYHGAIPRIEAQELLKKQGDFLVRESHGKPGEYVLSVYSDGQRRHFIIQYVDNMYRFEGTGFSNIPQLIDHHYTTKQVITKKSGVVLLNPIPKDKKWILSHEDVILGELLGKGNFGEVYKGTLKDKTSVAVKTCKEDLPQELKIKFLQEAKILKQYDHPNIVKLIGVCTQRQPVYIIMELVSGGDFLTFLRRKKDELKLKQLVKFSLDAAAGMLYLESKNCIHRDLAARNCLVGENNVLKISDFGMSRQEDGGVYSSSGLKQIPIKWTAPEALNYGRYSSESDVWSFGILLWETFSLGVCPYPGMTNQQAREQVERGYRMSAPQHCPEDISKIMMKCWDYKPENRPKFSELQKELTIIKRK

T1 sequence (P07332 448-822): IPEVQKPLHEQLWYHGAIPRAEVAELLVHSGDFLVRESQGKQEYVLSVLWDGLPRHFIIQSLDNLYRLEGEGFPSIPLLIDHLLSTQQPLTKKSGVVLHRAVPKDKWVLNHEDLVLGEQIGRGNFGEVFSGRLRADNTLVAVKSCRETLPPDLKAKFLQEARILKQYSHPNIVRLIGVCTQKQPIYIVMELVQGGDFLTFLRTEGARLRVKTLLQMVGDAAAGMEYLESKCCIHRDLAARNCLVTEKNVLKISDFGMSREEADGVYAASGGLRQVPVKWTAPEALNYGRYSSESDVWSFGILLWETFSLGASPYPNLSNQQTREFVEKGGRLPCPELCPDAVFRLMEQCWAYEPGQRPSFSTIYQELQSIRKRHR

Compound | Residual activity (%) (FES^WT; log[inhibitor] (M) = -5) | Residual activity (%) (FES^WT; log[inhibitor] (M) = -5.52288) | Residual activity (%) (FES^WT; log[inhibitor] (M) = -6) | Residual activity (%) (FES^WT; log[inhibitor] (M) = -6.52288) | Residual activity (%) (FES^WT; log[inhibitor] (M) = -7) | Residual activity (%) (FES^WT; log[inhibitor] (M) = -7.52288) | Residual activity (%) (FES^WT; log[inhibitor] (M) = -8) | Residual activity (%) WT Mean (FER^WT; log[inhibitor] (M) -5) [%] | Residual activity (%) WT Mean (FER^WT; log[inhibitor] (M) -5.52288) [%] | Residual activity (%) WT Mean (FER^WT; log[inhibitor] (M) -6) [%] | Residual activity (%) WT Mean (FER^WT; log[inhibitor] (M) -6.52288) [%] | Residual activity (%) WT Mean (FER^WT; log[inhibitor] (M) -7) [%] | Residual activity (%) WT Mean (FER^WT; log[inhibitor] (M) -7.52288) [%] | Residual activity (%) WT Mean (FER^WT; log[inhibitor] (M) -8) [%] | Residual activity (%) WT Mean (FER^WT; log[inhibitor] (M) -8.52288) [%] | Residual activity (%) WT Mean (FER^WT; log[inhibitor] (M) -9) [%] | Residual activity (%) WT Mean (FER^WT; log[inhibitor] (M) -9.52288) [%] | Residual activity (%) WT Mean (FER^WT; log[inhibitor] (M) -10) [%] | Residual activity (%) WT Mean (FER^WT; log[inhibitor] (M) -10.5229) [%] | Residual activity (%) WT Mean (FER^WT; log[inhibitor] (M) -11) [%] | also measured
COc1ccccc1Nc1ncc(Cl)c(Nc2ccccc2S(=O)(=O)C(C)C)n1 [Supplementary Figure 1c] | 3.135 | 1.274 | 0.9673 | 3.912 | 25.313 | 69.4661 | 80.7219 | – | – | – | – | – | – | – | – | – | – | – | – | – | Residual activity (%) (FES^WT; log[inhibitor] (M) = -8.52288): 93.5112%; Residual activity (%) (FES^WT; log[inhibitor] (M) = -9): 92.1668%; Residual activity (%) (FES^WT; log[inhibitor] (M) = -9.52288): 93.0906%; Residual activity (%) (FES^WT; log[inhibitor] (M) = -10): 84.5762%; Residual activity (%) (FES^WT; log[inhibitor] (M) = -10.5229): 85.1733%; Residual activity (%) (FES^WT; log[inhibitor] (M) = -11): 101.85%
C=CC(=O)Nc1cccc(Nc2nc(Nc3ccccc3OC)ncc2Cl)c1 [Supplementary Figure 1d] | 32.3982 | 40.0335 | 62.9411 | 63.4299 | 90.1255 | 87.1043 | 96.4271 | – | – | – | – | – | – | – | – | – | – | – | – | – | Residual activity (%) (FES^WT; log[inhibitor] (M) = -8.52288): 92.3122%; Residual activity (%) (FES^WT; log[inhibitor] (M) = -9): 101.396%; Residual activity (%) (FES^WT; log[inhibitor] (M) = -9.52288): 120.198%; Residual activity (%) (FES^WT; log[inhibitor] (M) = -10.5229): 97.4644%; Residual activity (%) (FES^WT; log[inhibitor] (M) = -11): 93.0274%
C=CC(=O)Nc1ccccc1Nc1nc(Nc2ccccc2OC)ncc1Cl [Supplementary Figure 1e] | 4.602 | 7.942 | 20.2502 | 52.3925 | 77.2757 | 90.9565 | 93.9799 | – | – | – | – | – | – | – | – | – | – | – | – | – | Residual activity (%) (FES^WT; log[inhibitor] (M) = -8.52288): 103.383%; Residual activity (%) (FES^WT; log[inhibitor] (M) = -9): 97.8768%; Residual activity (%) (FES^WT; log[inhibitor] (M) = -9.52288): 97.6076%; Residual activity (%) (FES^WT; log[inhibitor] (M) = -10): 100%; Residual activity (%) (FES^WT; log[inhibitor] (M) = -10.5229): 116.125%
COc1ccccc1Nc1ncc(Cl)c(Nc2ccccc2S(=O)(=O)C(C)C)n1 [Supplementary Figure 8c] | – | – | – | – | – | – | – | 0.06517 | 0.1492 | -0.06836 | 0.8273 | 4.343 | 12.0728 | 31.4398 | 59.2785 | 83.3824 | 101.278 | 106.348 | 105.352 | 108.85 | –
C=CC(=O)Nc1ccccc1Nc1nc(Nc2ccccc2OC)ncc1Cl [Supplementary Figure 8d] | – | – | – | – | – | – | – | 4.829 | 6.417 | 19.305 | 38.3519 | 71.19 | 87.6084 | 99.295 | 98.6881 | 106.616 | 102.334 | 107.184 | 102.376 | 116.944 | –
CCC(=O)Nc1ccccc1Nc1nc(Nc2ccccc2OC)ncc1Cl [Supplementary Figure 8e] | – | – | – | – | – | – | – | 15.6173 | 11.558 | 19.5081 | 74.3812 | 96.1324 | 93.3601 | 104.761 | 92.7732 | 106.725 | 98.2336 | 113.972 | 97.8463 | 108.607 | –
C#CCOc1ccc(Nc2ncc(Cl)c(Nc3ccccc3NC(=O)C=C)n2)c(OC)c1 [Supplementary Figure 8f] | – | – | – | – | – | – | – | 5.2329 | 3.792 | 14.1153 | 25.7365 | 62.4124 | 74.9371 | 97.3541 | 92.3988 | 107.069 | 97.7799 | 105.81 | 90.1497 | 111.768 | –
